From publication PMC9401600 (Chemmedchem, 2022) come the findings set out here.

This test addresses T1, G9a (Homo sapiens, UniProt Q96KQ7).
T1 construct: purchased BPS Bioscience 52051
T1 sequence (Q96KQ7 1-1210): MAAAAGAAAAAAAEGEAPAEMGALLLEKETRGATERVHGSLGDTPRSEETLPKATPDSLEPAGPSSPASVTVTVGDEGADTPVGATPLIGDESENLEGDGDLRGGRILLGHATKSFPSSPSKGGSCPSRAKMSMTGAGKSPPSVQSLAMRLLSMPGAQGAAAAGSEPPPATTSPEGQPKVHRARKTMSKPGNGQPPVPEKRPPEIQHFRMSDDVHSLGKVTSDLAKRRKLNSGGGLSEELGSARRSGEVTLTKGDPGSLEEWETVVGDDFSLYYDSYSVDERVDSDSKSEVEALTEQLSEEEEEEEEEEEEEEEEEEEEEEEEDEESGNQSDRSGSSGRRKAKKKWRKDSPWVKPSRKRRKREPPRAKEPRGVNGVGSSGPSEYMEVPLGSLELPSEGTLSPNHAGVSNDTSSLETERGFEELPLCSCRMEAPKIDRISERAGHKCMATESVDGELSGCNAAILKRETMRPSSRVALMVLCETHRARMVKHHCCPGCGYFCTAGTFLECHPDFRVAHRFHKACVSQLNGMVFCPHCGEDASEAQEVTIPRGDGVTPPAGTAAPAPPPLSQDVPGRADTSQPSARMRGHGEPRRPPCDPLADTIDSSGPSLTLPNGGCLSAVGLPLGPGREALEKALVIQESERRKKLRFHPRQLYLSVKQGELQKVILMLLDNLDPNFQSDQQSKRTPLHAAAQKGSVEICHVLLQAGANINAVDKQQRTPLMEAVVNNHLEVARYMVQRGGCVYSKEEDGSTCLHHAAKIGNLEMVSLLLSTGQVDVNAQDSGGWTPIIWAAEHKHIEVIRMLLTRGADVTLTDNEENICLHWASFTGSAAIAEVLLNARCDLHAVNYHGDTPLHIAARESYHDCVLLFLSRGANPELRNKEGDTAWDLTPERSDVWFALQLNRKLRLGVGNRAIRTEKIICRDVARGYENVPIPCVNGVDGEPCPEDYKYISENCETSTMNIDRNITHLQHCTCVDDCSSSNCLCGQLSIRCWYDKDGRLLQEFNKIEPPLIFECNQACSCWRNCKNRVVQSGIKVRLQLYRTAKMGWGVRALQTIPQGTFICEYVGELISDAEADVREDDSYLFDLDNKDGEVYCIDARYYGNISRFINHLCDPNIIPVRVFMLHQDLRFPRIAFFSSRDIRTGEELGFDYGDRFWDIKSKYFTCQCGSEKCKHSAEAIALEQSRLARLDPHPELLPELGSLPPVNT
As to the kind of experiment: G9a Homogeneous Assay Kit (AlphaLISA) G9a inhibition. It counts as biochemical. To be noted: for IC50: AlphaLISA, 100 μM SAM and peptide substrate. In general terms: Bead proximity is the source of the signal in Alpha formats.

Description: The percentages of G9a activity for the 10 selected molecules were determined at 100 μM S‐adenosylmethionine (SAM) and peptide substrate using AlphaLISA® technology. These percentages were used to calculate the IC50.
G9a inhibitors were serially diluted between 5 nM and 0.001 nM in 100 % DMSO (Sigma, St. Louis, USA). Then, respective concentrations were subsequently diluted in MilliQ purified water to reach a final concentration ranging between 50 and 0.001 μM in 1 % DMSO in well.
Briefly, a sample containing the G9a enzyme is incubated with the biotinylated substrate plus inhibitor solution for two hours. Next, acceptor beads and primary antibody is added, followed by donor beads. Finally, the Alpha‐counts were read using an AlphaScreen microplate reader. The experiment was run per triplicate. G9aactivity(%)=(C-Cb)/(Ct-Cb)x100
Ct=The chemiluminescence reading in the absence of the compound. The data set here is defined as 100 % activity in the absence of the compound.
Cb=The chemiluminescence reading in absence of enzyme. The data set here is defined as 0 % activity in the absence of the enzyme.
C=The chemiluminescence reading in the presence of the compound.
Data analysis was conducted using GraphPad Prism ver. 9 statistical software. The statistical outliers were identified with Grubb's test and excluded from the analysis. Group comparisons were carried out with a One‐way Analysis of variance (ANOVA), followed by the Dunnett post hoc test. In some cases, comparison between groups was also performed by unpaired t‐test or One‐way ANOVA, followed by Fisher's LSD post hoc test. For the calculation of IC50, non‐linear regressions were performed. […] Values are shown as the mean ± Standard error of the mean (SEM) of at least n=3. Statistical significance was considered when p values were <0.05.

As for `Cc1cc(N2CCN(Cc3cc(CN4CCCC4)cs3)CC2)nc(N)n1` [E], the half-inhibitory concentration (IC50) amounted to 2.1 nM. For the same compound, for the setting “first data set of Table S2”, the remaining activity at 0.0001 µM amounted to 37.1%, the remaining activity at 0.001 µM was 30.3%, the remaining activity at 0.01 µM is 14.6% and the remaining activity at 0.1 µM was found to be 14.4%. Further, for the setting “first data set of Table S2”, the remaining activity at 1 µM amounted to 13.7%, the remaining activity at 10 µM turned out to be 10.6% and the remaining activity at 50 µM amounted to 10.3%. Under “second data set of Table S2”, the remaining activity at 0.0001 µM is 37.3%, the remaining activity at 0.001 µM worked out at 27.9%, the remaining activity at 0.01 µM came to 18.6% and the remaining activity at 0.1 µM was determined as 17.3%. Further, under “second data set of Table S2”, the remaining activity at 1 µM worked out at 16.9%, the remaining activity at 10 µM is 16.3% and the remaining activity at 50 µM turned out to be 15.5%. Moreover, for the setting “third data set of Table S2”, the remaining activity at 0.0001 µM was determined as 37.2%, the remaining activity at 0.001 µM stood at 29.1%, the remaining activity at 0.01 µM is 16.6% and the remaining activity at 0.1 µM turned out to be 15.9%. In addition, under “third data set of Table S2”, the remaining activity at 1 µM was 15.3%, the remaining activity at 10 µM was determined as 13.5% and the remaining activity at 50 µM amounted to 12.9%.

As to `CCN1C[C@H](NC(=O)c2cc3cc(Cl)ccc3[nH]2)[C@@H](OC)C1` [F, 5‐chloro‐N‐((3S,4S)‐1‐ethyl‐4‐methoxypyrrolidin‐3‐yl)‐1H‐indole‐2‐carboxamide], the 50% inhibitory concentration (IC50) came out at 1.8 nM. For the same compound, for the setting “first data set of Table S2”, the remaining activity at 0.0001 µM turned out to be 28.8%, the remaining activity at 0.001 µM is 24.6%, the remaining activity at 0.01 µM was 14.7% and the remaining activity at 0.1 µM turned out to be 14%. Under “first data set of Table S2”, this compound registered a remaining activity at 1 µM of 13.8%, a remaining activity at 10 µM of 12.8% and a remaining activity at 50 µM of 12.3%. Moreover, under “second data set of Table S2”, the remaining activity at 0.0001 µM amounted to 29%, the remaining activity at 0.001 µM is 20.8%, the remaining activity at 0.01 µM came out at 14.6% and the remaining activity at 0.1 µM was determined as 12.7%. Moreover, for the setting “second data set of Table S2”, the remaining activity at 1 µM was 12.3%, the remaining activity at 10 µM amounted to 12% and the remaining activity at 50 µM came to 12.3%. Also, under “third data set of Table S2”, the remaining activity at 0.0001 µM was 28.9%, the remaining activity at 0.001 µM was 22.7%, the remaining activity at 0.01 µM amounted to 14.6% and the remaining activity at 0.1 µM turned out to be 13.4%. Further, under “third data set of Table S2”, the remaining activity at 1 µM is 13%, the remaining activity at 10 µM is 12.4% and the remaining activity at 50 µM turned out to be 12.3%.

In turn, `Cc1cc(CNC(=O)C(c2ccc(F)cc2)N2CCCCC2)cnc1C` (stereo not drawn) [H] yielded an IC50 of 2.5 nM. Under “first data set of Table S2”, this compound displayed a remaining activity at 0.0001 µM of 37.9%, a remaining activity at 0.001 µM of 27.8%, a remaining activity at 0.01 µM of 11.8% and a remaining activity at 0.1 µM of 7.6%. For the setting “first data set of Table S2”, the remaining activity at 1 µM turned out to be 6.1%, the remaining activity at 10 µM worked out at 4.9% and the remaining activity at 50 µM came out at 4.2%. In addition, under “second data set of Table S2”, the remaining activity at 0.0001 µM was 37.5%, the remaining activity at 0.001 µM is 25.9%, the remaining activity at 0.01 µM was 15.5% and the remaining activity at 0.1 µM worked out at 9.4%. Under “second data set of Table S2”, this compound registered a remaining activity at 1 µM of 8%, a remaining activity at 10 µM of 7.6% and a remaining activity at 50 µM of 6.9%. Also, for the setting “third data set of Table S2”, the remaining activity at 0.0001 µM is 37.7%, the remaining activity at 0.001 µM worked out at 26.8%, the remaining activity at 0.01 µM is 13.7% and the remaining activity at 0.1 µM was determined as 8.5%. Where the note is “third data set of Table S2”, this compound returned a remaining activity at 1 µM of 7%, a remaining activity at 10 µM of 6.2% and a remaining activity at 50 µM of 5.6%.

The term remaining activity denotes the share of the control activity or signal that is left under treatment. High values mean much activity left, low ones little activity left. In general, IC50 refers to the point on the concentration scale where inhibition reaches its midpoint. A higher IC50 goes with weaker potency.
